Test results: patent US20190374563A1, “TREATMENT OF KLEBSIELLA PNEUMONIAE INFECTIONS WITH ANTIBACTERIAL AMINOGLYCOSIDE COMPOUNDS” (Achaogen, Inc., priority 2009, published 2019)
≈ marks a conversion by molar mass, not a printed value. Like-named read-outs stand apart in the source and are kept apart here.

Assays:
[1] = tested on: P. aeruginosa ATCC 27853 (APAE001); experiment: MIC assay, CLSI broth microdilution; type: cell-based; conditions: Pseudomonas aeruginosa
Method: (§1) Minimum inhibitory concentrations (MIC) were determined by reference Clinical and Laboratory Standards Institute (CLSI) broth microdilution methods per M7-A7 [2006]. Quality control ranges utilizing E. coli ATCC 25922, P. aeruginosa ATCC 27853 and S. aureus ATCC 29213, and interpretive criteria for comparator agents were as published in CLSI M100-S17 [2007]. Briefly, serial two-fold dilutions of the test compounds were prepared at 2× concentration in Mueller Hinton Broth. The compound dilutions were mixed in 96-well assay plates in a 1:1 ratio with bacterial inoculum. The inoculum was prepared by suspension of a colony from an agar plate that was prepared the previous day. Bacteria were suspended in sterile saline and added to each assay plate to obtain a final concentration of 5×10^5 CFU/mL. The plates were incubated at 35° C. for 20 hours in ambient air.

[2] = tested on: E. coli ATCC 25922 (AECO001); experiment: MIC assay, CLSI broth microdilution; type: cell-based; parameters: MIC AECO001: unit not given here; conditions: for MIC: Escherichia coli; for MIC AECO001: Table 3, E. coli ATCC25922
Method: as §1

[3] = ATCC27853, read-out: MIC APAE001
[4] = ATCC25922, read-out: MIC AECO001
[5] = Table 1, APAE001 is ATCC27853, read-out: MIC APAE001
[6] = Table 1, AECO001 is ATCC25922, read-out: MIC AECO001

Row | Structure (SMILES) | MIC [1, 3] | MIC [2, 4] | MIC [1, 5] | MIC [2, 6] | MIC AECO001 [2]
1 | CN[C@@H]1[C@@H](O)[C@@H](O[C@@H]2[C@@H](O)[C@H](O[C@H]3OC(CNCC4(CN)CC4)=CC[C@H]3N)[C@@H](N)C[C@H]2NC(=O)[C@@H](O)CN)OC[C@]1(C)O [Example 66, 6′-(Methyl-1-aminomethyl-cyclopropyl)-1-(3-amino-2(S)-hydroxy-propionyl)-sisomicin] | 1 to 16 µg/mL (≈ 1.62 to 25.9 µM) | < 1 µg/mL |  |  | 
2 | CN[C@@H]1[C@@H](O)[C@@H](O[C@@H]2[C@@H](O)[C@H](O[C@H]3OC(CNCCO)=CC[C@H]3N)[C@@H](N)C[C@H]2NC(=O)C(O)C2CNC2)OC[C@]1(C)O (some centres unmarked) [Example 75, 6′-(2-Hydroxy-ethyl)-1-(2-(azetidin-3-yl)-2-hydroxy-acetyl)-sisomicin] | > 16 µg/mL | 1 to 16 µg/mL (≈ 1.65 to 26.5 µM) |  |  | 
3 | CN[C@@H]1[C@@H](O)[C@@H](O[C@@H]2[C@@H](O)[C@H](O[C@H]3OC(CN)=CC[C@H]3NC(=O)CC3CNCCO3)[C@@H](N)C[C@H]2NC(=O)[C@@H](O)CCN)OC[C@]1(C)O (stereo partly drawn) [Example 92, 2′-(Morpholin-2-yl-acetyl)-1-(4-amino-2(S)-hydroxy-butyryl)-sisomicin] | > 16 µg/mL | < 1 µg/mL |  |  | 
4 | CNCC1=CC[C@@H](NC(=N)N)[C@@H](O[C@H]2[C@H](O)[C@@H](O[C@H]3OC[C@](C)(O)[C@H](NC)[C@H]3O)[C@H](N)C[C@@H]2N)O1 [Example 108, 6′-Methyl-2′-guanidinium-sisomicin] | 1 to 16 µg/mL (≈ 1.99 to 31.8 µM) | < 1 µg/mL |  |  | 
5 | CN[C@@H]1[C@@H](O)[C@@H](O[C@@H]2[C@@H](O)[C@H](O[C@H]3OC(CNCC4CCNCC4)=CC[C@H]3N)[C@@H](N)C[C@H]2NC(=O)[C@@H](O)CCN)OC[C@]1(C)O [Example 12, 6′-(Methyl-piperidin-4-yl)-1-(4-amino-2(S)-hydroxy-butyryl)-sisomicin] |  |  | 1 to 16 µg/mL (≈ 1.55 to 24.8 µM) | 1 to 16 µg/mL (≈ 1.55 to 24.8 µM) | 1
6 | CN[C@@H]1[C@@H](O)[C@@H](O[C@@H]2[C@@H](O)[C@H](O[C@H]3OC(CNCC(O)CO)=CC[C@H]3N)[C@@H](N)C[C@H]2NC(=O)[C@H](O)CCN)OC[C@]1(C)O (stereo partly drawn) [Example 3, 6′-(2-Hydroxy-propanol)-1-(4-amino-2(R)-hydroxy-butyryl)-sisomicin] | > 16 µg/mL | 1 to 16 µg/mL (≈ 1.61 to 25.7 µM) |  |  | 
7 | CN[C@@H]1[C@@H](O)[C@@H](O[C@@H]2[C@@H](O)[C@H](O[C@H]3OC(CNCC4CCCN4)=CC[C@H]3N)[C@@H](N)C[C@H]2NC(=O)[C@@H](O)CCN)OC[C@]1(C)O (stereo partly drawn) [Example 49, 6′-(Methyl-pyrrolidin-2-yl)-1-(4-amino-2(S)-hydroxy-butyryl)-sisomicin] | 1 to 16 µg/mL (≈ 1.58 to 25.3 µM) | < 1 µg/mL |  |  | 
8 | CN[C@@H]1[C@@H](O)[C@@H](O[C@@H]2[C@@H](O)[C@H](O[C@H]3OC(CN)=CC[C@H]3NCCCCN)[C@@H](N)C[C@H]2NC(=O)[C@@H](O)CCN)OC[C@]1(C)O [Example 102, 2′-(4-Amino-butyl)-1-(4-amino-2(S)-hydroxy-butyryl)-sisomicin] | 1 to 16 µg/mL (≈ 1.61 to 25.8 µM) | < 1 µg/mL |  |  | 
9 | CN[C@@H]1[C@@H](O)[C@@H](O[C@@H]2[C@@H](O)[C@H](O[C@H]3OC(CNCC(O)CN)=CC[C@H]3N)[C@@H](N)C[C@H]2NC(=O)C(O)C2CNC2)OC[C@]1(C)O (some centres unmarked) [Example 82, 6′-(2-Hydroxy-3-amino-propyl)-1-(2-(azetidin-3-yl)-2-hydroxy-acetyl)-sisomicin] | > 16 µg/mL | 1 to 16 µg/mL (≈ 1.58 to 25.2 µM) |  |  | 
10 | CN[C@@H]1[C@@H](O)[C@@H](O[C@@H]2[C@@H](O)[C@H](O[C@H]3OC(CN)=CC[C@H]3NCC(O)CN)[C@@H](N)C[C@H]2NC(=O)[C@@H](O)CCN)OC[C@]1(C)O (stereo partly drawn) [Example 101, 2′-(2-Hydroxy-3-amino-propyl)-1-(4-amino-2(S)-hydroxy-butyryl)-sisomicin] | 1 to 16 µg/mL (≈ 1.61 to 25.7 µM) | < 1 µg/mL |  |  | 
11 | CN[C@@H]1[C@@H](O)[C@@H](O[C@@H]2[C@@H](O)[C@H](O[C@H]3OC(CNC[C@H]4C[C@H](N)C4)=CC[C@H]3N)[C@@H](N)C[C@H]2NC(=O)C2(O)CCNC2)OC[C@]1(C)O (stereo partly drawn) [Example 78, 6′-(Methyl-trans-3-amino-cyclobutyl)-1-(3-hydroxy-pyrrolidin-3-yl-acetyl)-sisomicin] | 1 to 16 µg/mL (≈ 1.55 to 24.9 µM) | < 1 µg/mL |  |  | 
12 | CN[C@@H]1[C@@H](O)[C@@H](O[C@@H]2[C@@H](O)[C@H](O[C@H]3OC(CNCC4CC4)=CC[C@H]3N)[C@@H](N)C[C@H]2NC(=O)[C@@H](O)CCN)OC[C@]1(C)O [Example 18, 6′-(Methyl-cyclopropyl)-1-(4-amino-2(S)-hydroxy-butyryl)-sisomicin] |  |  | 1 to 16 µg/mL (≈ 1.66 to 26.5 µM) | < 1 µg/mL | 1
13 | CNCC1=CC[C@@H](N)[C@@H](O[C@H]2[C@H](O)[C@@H](O[C@H]3OC[C@](C)(O)[C@H](NC)[C@H]3O)[C@H](NC(=O)C3(O)CNC3)C[C@@H]2N)O1 [Example 61] |  |  | 1 to 16 µg/mL (≈ 1.78 to 28.5 µM) | < 1 µg/mL | 1
14 | CN[C@@H]1[C@@H](O)[C@@H](O[C@@H]2[C@@H](O)[C@H](O[C@H]3OC(CNCC4CNC4)=CC[C@H]3N)[C@@H](N)C[C@H]2NC(=O)[C@@H](O)CN)OC[C@]1(C)O [Example 73, 6′-(Methyl-azetidin-3-yl)-1-(3-amino-2(S)-hydroxy-propionyl)-sisomicin] | 1 to 16 µg/mL (≈ 1.66 to 26.5 µM) | 1 to 16 µg/mL (≈ 1.66 to 26.5 µM) |  |  | 
15 | CN[C@@H]1[C@@H](O)[C@@H](O[C@@H]2[C@@H](O)[C@H](O[C@H]3OC(CNCC4(O)CCNCC4)=CC[C@H]3N)[C@@H](N)C[C@H]2NC(=O)[C@@H](O)CCN)OC[C@]1(C)O [Example 31] | 1 to 16 µg/mL (≈ 1.51 to 24.2 µM) | 1 to 16 µg/mL (≈ 1.51 to 24.2 µM) |  |  | 
16 | CN[C@@H]1[C@@H](O)[C@@H](O[C@@H]2[C@@H](O)[C@H](O[C@H]3OC(CNCCCN)=CC[C@H]3N)[C@@H](N)C[C@H]2NS(=O)(=O)CCN)OC[C@]1(C)O [Example 26, 6′-(3-Amino-propyl)-1-(2-amino-ethylsulfonamide)-sisomicin] | 1 to 16 µg/mL (≈ 1.63 to 26.2 µM) | 1 to 16 µg/mL (≈ 1.63 to 26.2 µM) |  |  | 
17 | CN[C@@H]1[C@@H](O)[C@@H](O[C@@H]2[C@@H](O)[C@H](O[C@H]3OC(CNCC(O)CN)=CC[C@H]3N)[C@@H](N)C[C@H]2NC(=O)C2(O)CCNC2)OC[C@]1(C)O (some centres unmarked) [Example 42, 6′-(2-Hydroxy-3-amino-propyl)-1-(3-hydroxy-pyrrolidin-3-yl-acetyl)-sisomicin] | 1 to 16 µg/mL (≈ 1.58 to 25.2 µM) | 1 to 16 µg/mL (≈ 1.58 to 25.2 µM) |  |  | 
18 | CN[C@@H]1[C@@H](O)[C@@H](O[C@@H]2[C@@H](O)[C@H](O[C@H]3OC(CNCCCN)=CC[C@H]3N)[C@@H](N)C[C@H]2NC(=O)[C@@H](O)CCN)OC[C@]1(C)O [Example 48, 6′-(3-Amino-propyl)-1-(4-amino-2(S)-hydroxy-butyryl)-sisomicin] |  |  | 1 to 16 µg/mL (≈ 1.65 to 26.4 µM) | < 1 µg/mL | 1
19 | CN[C@@H]1[C@@H](O)[C@@H](O[C@@H]2[C@@H](O)[C@H](O[C@H]3OC(CNCCO)=CC[C@H]3N)[C@@H](N)C[C@H]2NC(=O)CO)OC[C@]1(C)O [Example 25, 6′-(2-Hydroxy-ethyl)-1-(2-hydroxy-acetyl)-sisomicin] | 1 to 16 µg/mL (≈ 1.82 to 29.1 µM) | 1 to 16 µg/mL (≈ 1.82 to 29.1 µM) |  |  | 
20 | CN[C@@H]1[C@@H](O)[C@@H](O[C@@H]2[C@@H](O)[C@H](O[C@H]3OC(CNC[C@H]4C[C@H](N)C4)=CC[C@H]3NC(=N)N)[C@@H](N)C[C@H]2N)OC[C@]1(C)O [Example 107, 6′-(Methyl-trans-3-amino-cyclobutyl)-2′-guanidinium-sisomicin] | < 1 µg/mL | 1 to 16 µg/mL (≈ 1.75 to 27.9 µM) |  |  | 
21 | CN[C@@H]1[C@@H](O)[C@@H](O[C@@H]2[C@@H](O)[C@H](O[C@H]3OC(CNC[C@H]4C[C@H](N)C4)=CC[C@H]3N)[C@@H](N)C[C@H]2NC(=O)[C@@H](O)CN)OC[C@]1(C)O [Example 59, 6′-(Methyl-trans-3-amino-cyclobutyl)-1-(3-amino-2(S)-hydroxy-propionyl)-sisomicin] | 1 to 16 µg/mL (≈ 1.62 to 25.9 µM) | < 1 µg/mL |  |  | 
22 | CN[C@@H]1[C@@H](O)[C@@H](O[C@@H]2[C@@H](O)[C@H](O[C@H]3OC(CN)=CC[C@H]3NCC3CCNC3)[C@@H](N)C[C@H]2NC(=O)[C@@H](O)CCN)OC[C@]1(C)O (stereo partly drawn) [Example 84, 2′-(Methyl-pyrrolidin-3-yl)-1-(4-amino-2(S)-hydroxy-butyryl)-sisomicin] | 1 to 16 µg/mL (≈ 1.58 to 25.3 µM) | < 1 µg/mL |  |  | 
23 | CN[C@@H]1[C@@H](O)[C@@H](O[C@@H]2[C@@H](O)[C@H](O[C@H]3OC(CNCCCO)=CC[C@H]3N)[C@@H](N)C[C@H]2NC(=O)[C@@H](O)CN)OC[C@]1(C)O [Example 54, 6′-(3-Propanol)-1-(3-amino-2(S)-hydroxy-propionyl)-sisomicin] | 1 to 16 µg/mL (≈ 1.69 to 27 µM) | < 1 µg/mL |  |  | 
24 | CN[C@@H]1[C@@H](O)[C@@H](O[C@@H]2[C@@H](O)[C@H](O[C@H]3OC(CNCC4(O)CC(N)C4)=CC[C@H]3N)[C@@H](N)C[C@H]2NC(=O)[C@@H](O)CCN)OC[C@]1(C)O (some centres unmarked) [Example 46] | 1 to 16 µg/mL (≈ 1.54 to 24.7 µM) | < 1 µg/mL |  |  | 
25 | CN[C@@H]1[C@@H](O)[C@@H](O[C@@H]2[C@@H](O)[C@H](O[C@H]3OC(CNC[C@H]4C[C@H](N)C4)=CC[C@H]3N)[C@@H](N)C[C@H]2NC(=O)C(O)C2CNC2)OC[C@]1(C)O (stereo partly drawn) [Example 72, 6′-(Methyl-trans-3-amino-cyclobutyl)-1-(2-(azetidin-3-yl)-2-hydroxy-acetyl)-sisomicin] | 1 to 16 µg/mL (≈ 1.55 to 24.9 µM) | 1 to 16 µg/mL (≈ 1.55 to 24.9 µM) |  |  | 
26 | CN[C@@H]1[C@@H](O)[C@@H](O[C@@H]2[C@@H](O)[C@H](O[C@H]3OC(CNC(=N)N)=CC[C@H]3NC(=N)N)[C@@H](N)C[C@H]2N)OC[C@]1(C)O [Example 105, 6′,2′-bis-Guanidinium-sisomicin] | > 16 µg/mL | > 16 µg/mL |  |  | 
